Measured values as given in patent US12251366B1, “Sulforaphane-cysteine for wound healing in diabetic subjects” (KUWAIT UNIVERSITY, priority 2024, dated 2025).
Entries after “also recorded” stand apart in the source; their conditions may differ.

Tests used:
heme oxygenase (HO) = test: mRNA expression of Nrf2 target gene HO in fibroblasts; assay type: cell-based, rat; settings: diabetic fibroblasts, 1.5 μM
Procedure: (§1) To better characterize how SFN-Cys impacts cellular antioxidant levels, the ability of SFN-Cys to regulate the transcription factor nuclear factor erythroid 2-related factor 2 (Nrf2) was assessed, which is a master regulator of the antioxidative stress response that induces the expression of antioxidant proteins such as heme oxygenase (HO) and NAD(P)H dehydrogenase (quinine; NQO1) and key enzymes in the glutathione system. In this context, Nrf2 transcriptional activity was first measured using a vector encoding luciferase driven by the NQO1 promoter. […] Administration of SNF-Cyst at the above indicated concentration (1.5 μM, the lowest effective concentration) ameliorated diabetes-induced suppression of the Nrf2 activity and Nrf2-target genes including HO and NQO1 (FIG. 2A-D).
Total RNA from cells or frozen sponge implants was extracted using the Trizol reagent (Invitrogen), and the RNA integrity was verified by agarose gel electrophoresis. […] The amplified sequences were assessed using the ABI 7500 Prism Sequence Detection system machine. The results were expressed as mRNA levels normalized to 18S or GAPDH in each sample.

Nrf2 = Nrf2 activity (NQO1-ARE luciferase) in fibroblasts; assay type: cell-based, rat
Procedure: as §1
CF and DF were transfected with the antioxidative stress response element ARE-luciferase and pRenilla vectors using lipofectamine 2000 (Invitogen, USA). In this context, cells were plated and transfected in 12-well plates. Following treatment with SFN-Cys, cells were lysed and firefly and Renilla luciferase activity was determined using Dual luciferase assay (Promega, USA).

IL-6 = test: Real-time PCR, LPS-induced IL-6 mRNA in peritoneal macrophages; assay type: cell-based, mouse; settings: LPS 100 ng/mL, 1.5 umol/L, RT-PCR
Procedure: Additional tests were conducted to determine whether SFN-Cys also suppresses TNF-α and IL-6 expression at the mRNA level.
Thioglycollate-elicited mouse peritoneal macrophages were prepared from C57BL (8-10 weeks old) and cultured in RPMI 1640 with 10% (v/v) FCS Bone marrow-derived macrophages were generated in RPMI medium containing M-CSF (10 ng/mL) according to previously published procedure. For cytokine ELISA assay, cells were seeded at 5×10^5 in 12-well plates, whereas for mRNA expression, the cells were seeded at […]. LPS and used at a dose of 100 ng/mL. Similarly. SFN-Cys was used at a concentration of 1.5 umol/L.
(§2) Total RNA from cells or frozen sponge implants was extracted using the Trizol reagent (Invitrogen), and the RNA integrity was verified by agarose gel electrophoresis. Approximately 1 μg of RNA was reverse transcribed (Superscript II Reverse Transcriptase Kit, Invitrogen) and amplified using the TaqMan Assay on Demand (Applied Biosystems) in a 25 μL reaction volume containing two unlabeled primers, a 6-carboxyfluorescien-labeled TaqMan MGB probe and the master mix. The amplified sequences were assessed using the ABI 7500 Prism Sequence Detection system machine. The results were expressed as mRNA levels normalized to 18S or GAPDH in each sample.

full-thickness wounds = test: In vivo wound closure assay, excisional wound healing rat model; parameters: species or system GK rats; settings: for mitigation of diabetes-related impairment of wound healing compared with VEGF: animal model of (aged) type 2 diabetes; for wound closure / wound healing: rats, topical 1.5 μmol/wound in Pluronic acid every other day, day-0 through day-7
Procedure: Successful wound healing necessitates a series of tightly coordinated and overlapping processes including inflammation, new tissue formation and remodeling. Fibroblasts, in response to growth factors-released mostly by macrophages, migrate to the site of injury, where they proliferate and lay down the extracellular matrix (ECM). Consequently, this facilitates cell migration and tissue reconstruction. The effect of a therapeutic concentration of SFN-Cys (1.5 μM) was investigated on the proliferation of fibroblasts isolated from the granulation tissue of control and diabetic wounds. Similarly, the effect of SFN-Cys on cell migration in the in vitro wound closure assay was also considered. […] Accordingly, in vivo wound closure properties of SFN-Cys were examined using an excisional wound healing rat model. SFN-Cys containing Pluronic acid was topically applied to the wound at a dose of 1.5 μmol concentration and the wound closure area was digitally photographed and quantified. Digital photographs were obtained on day-0 through day-7 of post wounding. […] In this context, the wound healing time-course was faster in SFN-Cys containing Pluronic acid than the Pluronic acid alone (FIG. 3C). […] VEGF is a well-established enhancer of the proliferative phase of healing.
For wounding experiments, 15-18-month female GK rats were anesthetized with intraperitoneal injection of ketamine/xylazine and full-thickness wounds were made in the mid dorsal skin with 8-mm disposable punches. To evaluate the effect of SFN-Cys on wound closure, the drug was dissolved initially with DMSO and then diluted with a 25% Pluronic acid solution at a dose of 1.5 μmol/wound; applied topically to the wound every other day. The wounds were photographed at 0-, 3- or 7-days post-wounding.

[1] = system: Vimentin-TGF-β-Slug signaling pathway; test: Vimentin-TGF-β-Slug signaling in diabetic wound biopsies; assay type: in vivo, rat; settings: semi-chronic administration
Excerpt: Although the molecular mechanism by which SFN-Cyst enhanced wound healing potential was not fully explored in this study, it is possible to involve the Vimentin-TGF-β-Slug signaling pathway. Vimentin is an intermediate filament protein that participates in several cellular processes essential for wound healing, including cell proliferation, adhesion, migration and cytoskeletal rearrangement. Moreover, vimentin also amplifies epithelial-mesenchymal-transition via enhancing TGF-β-Slug signaling. […] A similar reduction in TGF-β-Slug signaling level was also evident in this disease state (FIG. 3D).
as §2

[2] = Muscle weight in diabetic mice (sarcopenia); assay type: in vivo
Excerpt: Therapeutic rational was considered for SFN-Cys effectiveness in the following pathological conditions: Sarcopenia-SFN-Cys increased muscle weight in diabetic mice, see FIGS. 4A and 4B; Cardiac fibrosis-SFN-Cys inhibits transforming growth factor beta (TGF-β) expression, see FIG. 4C; Erectile dysfunction-SFN-Cys increased endothelial nitric oxide activity and expression in corpus cavernosum.

mRNA expression of Nrf2 target gene HO (heme oxygenase (HO)): ameliorated
Nrf2 transcriptional activity (NQO1 promoter luciferase) (Nrf2; DF and CF-GP, 1.5 μM): ameliorated
Compound: C[S+]([O-])CCCCNC(=S)SCC(N)C(=O)O (stereo not shown) [SFN-Cys, Sulforaphane-Cysteine]
lowest effective concentration (Nrf2; fibroblasts, Nrf2 activity and Nrf2-target genes): 1.5 µM
LPS-induced IL-6 mRNA up-regulation (IL-6): significantly inhibited
mitigation of diabetes-related impairment of wound healing compared with VEGF (full-thickness wounds): better than vascular endothelial growth factor (VEGF)
mitigation of diabetes-related impairment of wound healing compared with VEGF (full-thickness wounds; listed as SNF-Cys): more efficacious than vascular endothelial growth factor (VEGF)
wound closure / wound healing (full-thickness wounds): enhanced wound closure; also recorded: ameliorated; also recorded: increases wound healing potential both in control and diabetic subjects
wound closure / wound healing (full-thickness wounds; listed as SNF-Cys): ameliorated
deficit in Vimentin-TGF-β-Slug signaling [1]: ameliorated
muscle weight [2]: increased
